This is an account of results in PMC4767720 (Drugs in R&D, 2016).

The nature of data set [1]: Ketoconazole interaction study, plasma pharmacokinetics. Type of data set: in vivo, human.
Data set [2] in a line: Safety and tolerability assessments in the three clinical studies. Type of data set: in vivo, human.
Another data set has as its system syk. Conditions: statement of the introduction, no reference given; cited from earlier work.
Data set [3] can be described thus: Microsomal stability of R406 in human hepatic microsomes. The class given is in vitro ADME. Conditions: R406 1 μM, 0.1 mg microsomal protein, NADPH 1 mM, 37 °C, pH 7.4.
Data set [4] is described as follows: Verapamil interaction study, plasma pharmacokinetics. Type of data set: in vivo, human.
A short description of data set [5]: Rifampicin interaction study, plasma pharmacokinetics. Type of data set: in vivo, human.
For data set [6] the following is noted: 10 μM R406, 1 mg protein/mL, 15 min.
Setting [7] is: R406, 80 mg fostamatinib + ketoconazole (P2), n=8.
Setting [8] is: R406, 80 mg fostamatinib alone (P1), n=8.
Where [9] appears, read: R406, 80 mg fostamatinib, ketoconazole 200 mg twice daily.
The mark [10] stands for this setting: R406 in plasma, single oral 80 mg fostamatinib alone (P1), n=8.
Setting [11] is: R406, 150 mg fostamatinib alone (P1), n=15.
The mark [12] stands for this setting: R406 in plasma, single oral 150 mg fostamatinib alone (P1), n=15.
The mark [13] stands for this setting: R406, 150 mg fostamatinib + rifampicin (P2), n=15.

As for `COc1cc(Nc2ncc(F)c(Nc3ccc4c(n3)N(COP(=O)(O)O)C(=O)C(C)(C)O4)n2)cc(OC)c1OC` [Fostamatinib], in data set [1] (80 mg fostamatinib with ketoconazole-placebo or with ketoconazole), the “plasma levels of R788” value is recorded as “negligible”. For the same compound, the “highest plasma concentration of R788 obtained in any subject” value in data set [1] (80 mg fostamatinib with placebo or ketoconazole) is recorded as less than 7 ng/mL. The “time post-dose beyond which no quantifiable R788 (above 0.5 ng/mL) was obtained” value in data set [1] (any subject) is recorded as 2 h. In addition, in data set [2] (all three clinical studies, alone and in combination with a CYP3A4 inducer/inhibitor), the tolerability entry is on record as “well tolerated”. Moreover, the “deaths, serious AEs, withdrawals due to AEs, severe AEs” value in data set [2] (any of the three studies) is recorded as “no deaths, serious AEs, withdrawals due to AEs or severe AEs”. Further, in data set [2] (ketoconazole interaction study), the “treatment-emergent AEs in subjects receiving fostamatinib and ketoconazole” value is “No treatment-emergent AEs”. Further, the “total AEs reported” value in data set [2] (ketoconazole interaction study, all treatments, N=8) is recorded as “eight”; in data set [2] (verapamil interaction study, one AE per treatment arm, one mild, two moderate), “three”. For the same compound, in data set [2] (rifampicin interaction study, all arms, all mild), the “total AEs recorded” value is on record as “four”. Further, the “AEs considered related to administration of fostamatinib” value in data set [2] (verapamil interaction study) is “None”. Moreover, the “activity against syk compared with R406” value in the data set on syk is given as “much less active”.
For `COc1cc(Nc2ncc(F)c(Nc3ccc4c(n3)NC(=O)C(C)(C)O4)n2)cc(OC)c1O` [R529], the “activity against syk compared with R406” value in the data set on syk is “much less active”.
Consider `COc1cc(Nc2ncc(F)c(Nc3ccc4c(n3)NC(=O)C(C)(C)O4)n2)cc(OC)c1OC` [R406], for which the microsomal half-life in data set [3] was 0.407 h. Moreover, the “increase in R406 exposure with ketoconazole co-administration” value in data set [1] (80 mg fostamatinib, ketoconazole 200 mg twice daily) stood at 2 fold. Moreover, the “tmax, median” value amounted to 2.00 h in data set [1] (setting [7]); 1.25 h in data set [1] (setting [8]); 1.50 h in data set [4] (R406, 150 mg fostamatinib + verapamil (P2), n=14); 1.48 h in data set [4] (setting [11]); 1.00 h in data set [5] (setting [13]); 2.00 h in data set [5] (setting [11]). The “t½, geometric mean (GCV %)” value in data set [1] (setting [7]) is reported as 17.7 (31.9) h; in data set [1] (setting [8]) it was 13.6 (32.1) h; in data set [4] (R406, 150 mg fostamatinib + verapamil (P2), n=13), 19.1 (51.1) h; in data set [4] (setting [11]), 13.5 (28.4) h; in data set [5] (setting [13]), 10.8 (38.6) h; in data set [5] (setting [11]), 15.0 (30.3) h. For the same compound, in data set [1] (setting [9]), the “average increase in AUC0–∞ after co-administration of ketoconazole” value was determined as 102%. For the same compound, in data set [1] (setting [9]), the “average increase in Cmax after co-administration of ketoconazole” value came to 37%. For the same compound, the “average t½” value in data set [1] (R406, fostamatinib alone) is given as 14.2 h; in data set [1] (R406, fostamatinib with ketoconazole co-administration), 18.4 h. Further, in data set [1] (R406, fostamatinib plus ketoconazole), the “tmax (value of the text, not the median)” value amounted to 1.69 h. Further, the “AUC0–∞, geometric mean (GCV %)” value in data set [1] (setting [10]) is reported as 3690 (19.9) ng·h/mL; in data set [4] (setting [12]), 6380 (36.1) ng·h/mL; in data set [5] (setting [12]), 6540 (48.5) ng·h/mL. Also, the figures for the “Cmax, geometric mean (GCV %)” value in data set [1] (setting [10]), in data set [4] (setting [12]) and in data set [5] (setting [12]) were 325 (13.7) ng/mL, 588 (45.7) ng/mL and 573 (58.7) ng/mL, respectively. Moreover, the “effect of verapamil co-administration on R406 Cmax” value in data set [4] (150 mg fostamatinib) is “no consistent effect”. Moreover, the “effect of verapamil on R406 tmax” value in data set [4] (150 mg fostamatinib) was “no consistent effect”. For the same compound, the “subjects with higher R406 AUC after verapamil co-administration” value in data set [4] (150 mg fostamatinib, verapamil 80 mg three times daily) is 10 of the 13. Further, the “reduction in R406 Cmax with rifampicin co-administration” value in data set [5] (150 mg fostamatinib, rifampicin 600 mg once daily) is listed as approximately 60%. Further, the “effect of rifampicin co-administration on tmax” value in data set [5] (R406, 150 mg fostamatinib) is on record as “no consistent effect”. In data set [6], the major metabolite result is recorded as “para-O-demethylated R406, R529”.
